Assays:
Human orthopneumovirus = assay: Antiviral activity against Human respiratory syncytial virus; assay type: functional, organism-based
[1] = Cytotoxicity against human Hep2 cells; assay type: cell-based, HEp-2
[2] = Cytotoxicity against human MT4 cells; assay type: cell-based
[3] = Inhibition of Human respiratory syncytial virus RNP

SMILES | EC50 (Human orthopneumovirus) [µM] | CC50 [1] [µM] | CC50 [2] [µM] | IC50 [3] [µM]
N#C[C@]1(CO)O[C@@H](c2ccc3c(N)ncnn23)[C@H](O)[C@@H]1O | 7.3 | > 50 | > 53 | 
C#C[C@]1(CO)O[C@@H](c2ccc3c(N)ncnn23)[C@H](F)[C@@H]1O | 9.6 | > 100 | > 106 | 
C#C[C@]1(COP(=O)(O)OP(=O)(O)OP(=O)(O)O)O[C@@H](c2ccc3c(N)ncnn23)[C@H](F)[C@@H]1O |  |  |  | 1
CC(C)(C)C(=O)SCCOP(=O)(OCCSC(=O)C(C)(C)C)OC[C@@]1(C#N)O[C@@H](c2ccc3c(N)ncnn23)[C@H](O)[C@@H]1O | 1 | 39 | 7.3 | 
[N-]=[N+]=N[C@]1(CO)O[C@@H](c2ccc3c(N)nc(F)nn23)[C@H](F)[C@@H]1O | 0.57 | > 100 | 32 | 
N#C[C@]1(CO)O[C@@H](c2cc(F)c3c(N)ncnn23)[C@H](O)[C@@H]1O | 9.2 | > 100 | > 93 | 
